These results are taken from patent publication US20250129370A1, “METHOD FOR REDUCING HEPATIC TRIGLYCERIDES” (ADAERATA, LIMITED PARTNERSHIP, priority 2022, published 2025).

Assay [1] deals with T1, PC7 (Homo sapiens, UniProt Q16549).
T1 construct: expressed in transfected cells; host or cells: naïve IHH cells
T1 sequence (Q16549 142-785): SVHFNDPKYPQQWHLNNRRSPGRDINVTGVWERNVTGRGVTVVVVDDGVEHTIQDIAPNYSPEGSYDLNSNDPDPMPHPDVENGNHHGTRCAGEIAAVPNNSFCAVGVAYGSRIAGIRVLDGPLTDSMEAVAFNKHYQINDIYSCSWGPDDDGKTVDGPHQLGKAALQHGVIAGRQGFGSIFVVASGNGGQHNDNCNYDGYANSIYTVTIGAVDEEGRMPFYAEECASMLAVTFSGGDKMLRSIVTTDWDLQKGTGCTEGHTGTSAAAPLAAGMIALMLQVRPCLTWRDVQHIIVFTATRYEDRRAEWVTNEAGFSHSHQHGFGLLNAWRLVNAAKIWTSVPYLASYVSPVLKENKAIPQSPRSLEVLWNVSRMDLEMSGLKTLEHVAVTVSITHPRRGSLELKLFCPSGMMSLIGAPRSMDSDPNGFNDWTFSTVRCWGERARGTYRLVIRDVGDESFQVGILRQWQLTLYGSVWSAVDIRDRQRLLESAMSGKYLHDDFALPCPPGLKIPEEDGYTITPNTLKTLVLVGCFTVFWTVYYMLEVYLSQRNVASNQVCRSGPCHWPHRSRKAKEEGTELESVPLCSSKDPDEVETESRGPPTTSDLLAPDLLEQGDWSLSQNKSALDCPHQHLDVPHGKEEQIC
The experiment in a line: s-apoB secretion in IHH cells overexpressing PC7, with pan-proprotein convertase inhibitor. The format is cell-based. The conditions noted are these: naive IHH cells overexpressing PC7 and s-apoB. How it is done: FIGS. 7A-l: PCSK7 can bind apoB in the ER and acts as a molecular chaperone-like facilitating its secretion, and its absence leads to a rapid degradation of apoB by the proteasome. […] (FIG. 7A) Western blot (presented on gel and graphically) of apoB100 and PC7 protein levels in WT and PCSK7^−/− IHH cells. Levels are normalized to α-tubulin. (FIG. 7B) Western blot (presented on gel and graphically) of apoB100 and PC7 protein levels over time (0, 15 and 30 minutes) in WT and PCSK7^−/− IHH cells incubated with cycloheximide (CHX) to block de novo mRNA translation. Levels are normalized to α-tubulin. (FIG. 7C-D) Western blot (presented on gel and graphically) of cellular apoB levels in WT and PCSK7^−/− IHH cells incubated with brefeldin A (BFA) that blocks exit from the endoplasmic reticulum (ER), an autophagy inhibitor 3-methyladenine (3MA), proteasome inhibitors MG132, Lactacystin, DMSO or non treated (NT) controls. (FIG. 7E) Western blot (presented on gel) of cellular apoB levels and polyubiquitinated apoB100 in WT and PCSK7^−/− IHH cells incubated with Lactacystin. (FIG. 7F) Schematic representation of apoB100 and apoB21 protein. […]

Assay [2] has as its system Mouse FL38B hepatocyte cells. The experiment in a line: Lipid droplet accumulation in oleic acid-treated mouse hepatocyte cells. The format is cell-based. As for the experimental part: FIGS. 37A-E: Comparison of various ASOs and vitamin E on lipid droplet accumulation in mouse FL38B hepatocytes. (FIG. 37A) Immunocytochemical analysis of mouse FL38B hepatocyte cells incubated for 48 h with oleic acid in the presence of either fluorescent mouse mASO-1, mASO-2 or mASO-7 (not shown) or α-tocopherol (vitamin E) (arrows pointing towards transfected cells, red staining indicate lipid droplets). (FIG. 37B) Quantitative analysis of results expressed in bar graph. (FIGS. 37C-D). The effect of eight ASOs on Pcsk7 mRNA levels as measured by quantitative PCR (qPCR). The experiment was repeated two independent times. *p<0.05 (FIG. 37A) The effect of mASO-1, mASO-2, mASO-7 and Vitamin E on reduction of accumulation of fluorescent triglycerides in cells as estimated by FACS measurement of lipid droplets (LD) by LipidTox™ staining. (FIG. 37E). modifications of ASO by trivalent linkage to N-acetyl-Galactosamine ([…]).
The effect of eight ASOs on Pcsk7 mRNA levels was measured by quantitative PCR (qPCR) (FIG. 37C). Mouse FL38B hepatocyte cells were incubated for 48 h with oleic acid in the presence of either fluorescent (green) mouse mASO-1, mASO-7 or α-tocopherol (vitamin E). […] (FIGS. 37B-37D). Mouse FL38B hepatocyte cells were plated on day 1, ASOs were added on day 2, the media was replaced on day 3 and RNA was extracted on day 4. […]

For assay [3], the system named is Pcsk7 mRNA. The experiment in a line: Liver Pcsk7 mRNA after the recovery period following HFFC diet. The format is in vivo, mouse. The conditions noted are these: after 8 weeks recovery, 500 IU/kg of food.
Description: The dose-dependent efficacy of these ASOs following their subcutaneous injection in mice was tested for the decrease in total liver Pcsk7 mRNA at 2, 5, 10 and 15 mg/kg, twice a week for 1 month. […] Mice were next injected with 5 mg/kg of either GalNac-ASO7 and GalNac-ASO-2, twice a week for 1 month, whereupon the livers and their partially purified primary hepatocytes were analyzed by RT-qPCR for the levels of Pcsk7 mRNA. […] A program was then set up whereby 8 weeks-old mice were fed a HFFC diet for 16 weeks, after which they were switched to a regular chow diet for another 8 weeks recovery period. The mice were divided into 3 groups of 12 mice each and treated as follows starting from the beginning of the recovery period (FIG. 38C): (1) a control non-treated group; (2) two GalNac-ASO groups subcutaneously injected twice a week for 8 weeks with either GalNac-ASO7 or GalNac-ASO2 at 5 mg/kg; (3) a group fed a chow diet containing Vitamin E (α-tocopherol) at 500 IU/kg of food.
The inventors next compared the levels of Pcsk7 mRNAs in the livers of mice after the 8 weeks recovery period that followed the 16-weeks HFFC diet.
The test system of assay [4] is mice fed a HFFC diet. The experiment in a line: Liver lipid droplets and histopathology in mice recovering from HFFC diet. The format is in vivo, mouse. Particulars: after 8 weeks recovery and treatment. The text has this: FIGS. 39A-D (FIG. 39A) Upper panels—Oil red 0 staining of liver sections control (no treatment), and ASO-2, ASO-7 and α-tocopherol treated mice. Lower panels; Total area of LDs, mean area of LD and LD number in non treated mice or in mice treated with GalNac-ASO-7, GalNac-ASO-2 or α-tocopherol. (FIG. 39B) Liver morphology and fat accumulation measured in terms of liver inflammation, hepatocyte ballooning and steatosis grade in non treated mice or in mice treated with GalNac-ASO-7, GalNac-ASO-2 or α-tocopherol. (FIG. 39C) Extent of fibrosis measured by Sirius red staining in non treated mice or in mice treated with GalNac-ASO-7, GalNac-ASO-2 or α-tocopherol. […]
Eight ASOs against mouse Pcsk7 were tested in mouse FL38B hepatocytes and the best ones, namely ASO2 and ASO7, were modified (FIG. 37D) with covalent linkages to trivalent N-acetyl-Galactosamine (GalNac) residues (FIG. 37E). […] Mice were next injected with 5 mg/kg of either GalNac-ASO7 and GalNac-ASO-2, twice a week for 1 month, whereupon the livers and their partially purified primary hepatocytes were analyzed by RT-qPCR for the levels of Pcsk7 mRNA. […]
The reduction of LD accumulation in mice treated with GalNac-ASO-7 or GalNac-ASO-2 compared to α-tocopherol was next analyzed (FIG. 39A).

*: point of attachment. Decanoyl = CCCCCCCCCC(=O)*; CH2Cl = ClC*

On to Decanoyl-RVKR-CH2Cl, for which the “chaperone-like activity of PC7 on apoB (s-apoB secretion)” value in assay [1] is recorded as “did not block”.

In the case of `Cc1c(C)c2c(c(C)c1O)CC[C@@](C)(CCC[C@H](C)CCC[C@H](C)CCCC(C)C)O2` [α-tocopherol], the “accumulation of lipid droplets” value in assay [2] (48 h with oleic acid, immunocytochemistry) is recorded as “significantly reduced”. The “accumulation of fluorescent triglycerides in cells” value in assay [2] (FACS measurement of lipid droplets by LipidTox staining) is “best reduction”. Besides, the “increase in Pcsk7 mRNA levels” value in assay [3] is 33%. Besides, the “reduced total area, more abundant but smaller LDs, relative to GalNac-ASO7” value in assay [4] is “significantly less”.
